# Experimental data from patent US20050101595A1, “N-containing cycloalkyl-substituted amino-thiazole derivatives and pharmaceutical compositions for inhibiting cell proliferation and methods for their use” (PFIZER INC., priority 2003, published 2005).
# Where a name gives a salt, the structure may show the parent alone. Read-outs that look alike come from different tables or passages of the source.
# Tests used:
# CDK2/Cyclin A = CDK2/Cyclin A (Homo sapiens, UniProt P24941); test: Inhibition of CDK2/Cyclin A Retinoblastoma Kinase Activity; assay type: biochemical; conditions: for CDK2 % Inhibition At 0.03 μM: Table 2; for Ki: apparent Ki, CDK2/proteolyzed cyclin A, Rb fragment substrate, 25 μM ATP
# How it was run: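 CDK2 (10 or 19 nM), insect-cell expressed, gel-filtration purified with truncated cyclin A; Rb fragment substrate; 25 μM ATP; 10 mM HEPES pH 7.4, 10 mM MgCl2; 30° C, 60 or 75 min; EDTA stop; phosphocellulose/nitrocellulose capture, phosphorimager. % inhibition vs DMSO control, no-enzyme background subtracted.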
# HCT-116 cell line = test: Inhibition of cell growth, tetrazolium salt (MTT) assay; assay type: cell-based; conditions: for HCT-116 % Inhibition at 0.25 μM: 0.25 μM compound; for IC50: Homo sapiens, HCT-116, 120 h, MTT, three to five days, read-out: HCT-116 IC50
# How it was run: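 MTT colorimetric viability: three-to-five-day compound exposure in 0.5% (v/v) DMSO at 37° C, MTT 0.2 mg/mL for the last 4 h, A540 compared with vehicle-treated cells.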
# [1] = biological target: human CDK4 and genetically truncated (1-264) cyclin D3 (Homo sapiens, UniProt P11802); test: Inhibition of CDK4/Cyclin D Retinoblastoma Kinase Activity; assay type: biochemical; conditions: for Ki: apparent Ki, CDK4/truncated cyclin D3, Rb fragment substrate, 25 μM ATP
# Chain of human CDK4 and genetically truncated (1-264) cyclin D3 (P11802 whole entry, the tested form may be a part): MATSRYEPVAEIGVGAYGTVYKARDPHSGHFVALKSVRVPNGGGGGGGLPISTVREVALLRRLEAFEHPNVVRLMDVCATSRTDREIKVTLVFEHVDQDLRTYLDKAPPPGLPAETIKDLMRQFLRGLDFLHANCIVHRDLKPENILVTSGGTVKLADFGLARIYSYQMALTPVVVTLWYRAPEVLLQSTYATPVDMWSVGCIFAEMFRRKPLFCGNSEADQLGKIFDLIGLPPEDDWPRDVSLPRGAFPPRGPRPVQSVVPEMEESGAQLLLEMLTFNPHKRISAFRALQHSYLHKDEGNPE
# Chain of human CDK4 and genetically truncated (1-264) cyclin D3 (P30281 1-264 partner): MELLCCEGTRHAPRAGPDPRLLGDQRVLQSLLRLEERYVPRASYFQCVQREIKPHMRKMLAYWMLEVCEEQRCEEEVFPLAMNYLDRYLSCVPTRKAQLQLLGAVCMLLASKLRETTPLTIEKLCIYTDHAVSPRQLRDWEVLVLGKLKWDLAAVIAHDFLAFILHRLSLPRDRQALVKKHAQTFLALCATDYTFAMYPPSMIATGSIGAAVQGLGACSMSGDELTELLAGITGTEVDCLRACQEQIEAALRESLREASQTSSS
# How it was run: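 The enzyme complex (5 nM), expressed in co-infected insect cells, was incubated with recombinant Rb fragment, 25 μM radiolabelled ATP and 2% DMSO at 30 °C. Reactions were stopped with EDTA after 20 minutes, or 60 minutes for tight-binding inhibitors. Apparent Ki values came from competitive inhibition fits.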
# [2] = 0.1 μM compound, HCT-116, Table 3
SMILES,CDK2 % Inhibition At 0.03 μM (CDK2/Cyclin A; 0.03 μM compound) [%],"CDK4 % Inhibition at 0.03 μM ([1]; 0.03 μM compound, Table 2) [%]",Ki (CDK2/Cyclin A) [nM],IC50 (HCT-116 cell line; first HCT-116 column (c4)) [nM],IC50 (HCT-116 cell line; second HCT-116 column (c5)) [nM],Ki [1] [nM],"HCT-116 % Inhibition at 0.25 μM (HCT-116 cell line; HCT-116, Table 2) [%]",also measured
Nc1nc(NC2CCN(S(=O)(=O)c3ccc(-c4ccon4)s3)CC2)sc1C(=O)c1c(F)cccc1F [Example P64],,,,,,,,"CDK2 % Inhibition at 0.03 μM (CDK2/Cyclin A; 0.03 μM compound, Table 3): 80%; HCT-116 % Inhibition at 0.1 μM (HCT-116 cell line; [2]): 13%; HCT-116 % Inhibition at 0.25 μM (HCT-116 cell line; HCT-116, Table 3): 31%; CDK4 % Inhibition at 0.03 μM ([1]; 0.03 μM compound, Table 3): 81%"
Nc1nc(NC2CCN(C(=O)Nc3ccc(Br)cc3)CC2)sc1C(=O)c1c(F)cccc1F [Example O18],27,9,,,,,20,
Nc1nc(NC2CCN(C(=O)Nc3ccc(Oc4ccccc4)cc3)CC2)sc1C(=O)c1c(F)cccc1F [Example O52],24,11,,,,,33,
"Nc1nc(NC2CCN(S(=O)(=O)c3ccc(-c4ncc[nH]4)nc3)CC2)sc1C(=O)c1c(F)cccc1F [Example I1, 1-(4-Amino-2-{1-[6-(1H-imidazol-2-yl)-pyridine-3-sulfonyl]-piperidin-4-ylamino}-thiazol-5-yl)-1-(2,6-difluoro-phenyl)-methanone Hydrochloride]",,,0.26,300,500,0.56,,
CC(NC(=O)N1CCC(Nc2nc(N)c(C(=O)c3c(F)cccc3F)s2)CC1)c1ccccc1 (centres unmarked) [Example O66],,,,,,,,"CDK2 % Inhibition At 0.03 μM (CDK2/Cyclin A; 0.03 μM compound, 0.03 µM): 32%; HCT-116 % Inhibition at 0.25 μM (HCT-116 cell line; HCT-116, Table 2, 0.25 µM): 36%; CDK4 % Inhibition at 0.03 μM ([1]; 0.03 μM compound, Table 2, 0.03 µM): −1%"
"Cc1cc(C)cc(CC(=O)N2CCC(Nc3nc(N)c(C(=O)c4c(F)cccc4F)s3)CC2)c1 [Example D10, 1-{4-[4-Amino-5-(2,6-difluoro-benzoyl)-thiazol-2-ylamino]piperidin-1-yl}-2-(3,5-dimethyl-phenyl)-ethanone]",,,85,60,200,62,,
"CC1=NC(C)CN1c1ccc(S(=O)(=O)N2CCC(Nc3nc(N)c(C(=O)c4c(F)cccc4F)s3)CC2)cn1 (centres unmarked) [Example G23, 1-(4-Amino-2-{1-[6-(2,4-dimethyl-4,5-dihydro-imidazol-1-yl)-pyridin-3-sulfonyl]-piperidin-4-ylamino}-thiazol-5-yl)-1-(2,6-difluoro-phenyl)-methanone Hydrochloride]",,,< 1,750,5000,0.44,,
"CC(=O)N(C)C1CCN(CCCS(=O)(=O)N2CCC(Nc3nc(N)c(C(=O)c4c(F)cccc4F)s3)CC2)C1 (centres unmarked) [Example K20, N-{1-[3-(4-{4-Amino-5-[1-(2,6-difluoro-phenyl)-methanoyl]-thiazol-2-ylamino}-piperidine-1-sulfonyl)-propyl]-pyrrolidin-3-yl}-N-methyl-acetamide]",,,4.8,2000,5000,1.5,,
Nc1nc(NC2CCN(S(=O)(=O)c3ccc(Br)cc3)CC2)sc1C(=O)c1c(F)cccc1F [Example P12],,,,,,,,"CDK2 % Inhibition at 0.03 μM (CDK2/Cyclin A; 0.03 μM compound, Table 3): 54%; HCT-116 % Inhibition at 0.1 μM (HCT-116 cell line; [2]): 24%; HCT-116 % Inhibition at 0.25 μM (HCT-116 cell line; HCT-116, Table 3): 29%; CDK4 % Inhibition at 0.03 μM ([1]; 0.03 μM compound, Table 3): 54%"
Nc1nc(NC2CCN(C(=O)c3ccc(C(F)(F)F)cc3C(F)(F)F)CC2)sc1C(=O)c1c(F)cccc1F [Example R38],,,,,,,,"CDK2 % Inhibition at 0.03 μM (CDK2/Cyclin A; at 0.03 μM): 0%; HCT-116 % Inhibition at 0.1 μM (HCT-116 cell line; HCT-116 cells, at 0.1 μM): 0%; HCT-116 5 Inhibition at 0.25 μM (HCT-116 cell line; HCT-116 cells, at 0.25 μM): 33; CDK4 % Inhibition at 0.03 μM ([1]; at 0.03 μM): 35%"
"CC1C=CC(C)N1CCS(=O)(=O)N1CCC(Nc2nc(N)c(C(=O)c3c(F)cccc3F)s2)CC1 (mixture of isomers) [Example K27, (4-Amino-2-{1-[2-(cis/trans-2,5-dimethyl-2,5-dihydro-pyrrol-1-yl)-ethanesulfonyl]-piperidin-4-ylamino}-thiazol-5-yl)-(2,6-difluoro-phenyl)-methanone Trifluoroacetic Acid Salt.]",,,11,230,800,3.5,,

# Further lines, with some results ahead:
CDK2 % Inhibition At 0.03 μM (CDK2/Cyclin A; 0.03 μM compound) [%],"CDK4 % Inhibition at 0.03 μM ([1]; 0.03 μM compound, Table 2) [%]",Ki (CDK2/Cyclin A) [nM],IC50 (HCT-116 cell line; first HCT-116 column (c4)) [nM],IC50 (HCT-116 cell line; second HCT-116 column (c5)) [nM],Ki [1] [nM],SMILES,"HCT-116 % Inhibition at 0.25 μM (HCT-116 cell line; HCT-116, Table 2) [%]",also measured
35,102,,,,,CCOC(=O)C(NC(=O)N1CCC(Nc2nc(N)c(C(=O)c3c(F)cccc3F)s2)CC1)C(C)C (centres unmarked) [Example O74],34,
29,5,,,,,CCOC(=O)C(CC(C)C)NC(=O)N1CCC(Nc2nc(N)c(C(=O)c3c(F)cccc3F)s2)CC1 (centres unmarked) [Example O69],51,
